Assay results published in US11091478B2 (Fochon Pharmaceuticals, Ltd., priority 2017, dated 2021).

How the values were obtained:
[1] = test system: DOHH2 cells; test: Cell proliferation assay (MTS), DOHH2 cells, 120 h; type: cell-based; settings: Homo sapiens, DOHH-2, 120 h
How it was run: (§1)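 Proliferation was scored by MTS (2 h, then SDS stop, A490 with 650 nm reference) and IC50 derived. Compound ran at nine final concentrations from 1.5 to 10000 nM. DOHH2 were incubated 120 h and RS4;11 72 h, both plated at 5000 cells/well in RPMI-1640 plus 10% FBS.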

[2] = test system: RS4;11 cells; test: Cell proliferation assay (MTS), RS4;11 cells, 72 h; type: cell-based; settings: Homo sapiens, RS4-11, 72 h
How it was run: as §1

| SMILES | IC50 [1] | IC50 [2] |
| --- | --- | --- |
| CC1(C)CCC(CN2CCN(c3ccc(C(=O)NS(=O)(=O)c4cc5c(c([N+](=O)[O-])c4)N[C@H](Cc4ccccn4)CO5)c(Oc4cnc5[nH]ccc5c4)c3)CC2)=C(c2ccc(Cl)cc2)C1 [Example 2-199, (R)-2-((1H-pyrrolo[2,3-b]pyridin-5-yl)oxy)-4-(4-((4′-chloro-5,5-dimethyl-3,4,5,6-tetra-hydro-[1,1′-biphenyl]-2-yl)methyl)piperazin-1-yl)-N-((5-nitro-3-(pyridin-2-ylmethyl)-3,4-dihydro-2H-benzo[b][1,4]oxazin-7-yl)sulfonyl)benzamide] | 0.055 µM | 0.018 µM |
| COc1ccc(C[C@@H]2COc3cc(S(=O)(=O)NC(=O)c4ccc(N5CCN(CC6=C(c7ccc(Cl)cc7)CC(C)(C)CC6)CC5)cc4Oc4cnc5[nH]ccc5c4)cc([N+](=O)[O-])c3N2)nc1 [Example 2-200, (R)-2-((1H-pyrrolo[2,3-b]pyridin-5-yl)oxy)-4-(4-((4′-chloro-5,5-dimethyl-3,4,5,6-tetra-hydro-[1,1′-biphenyl]-2-yl)methyl)piperazin-1-yl)-N-((3-((5-methoxypyridin-2-yl)meth-yl)-5-nitro-3,4-dihydro-2H-benzo[b][1,4]oxazin-7-yl)sulfonyl)benzamide] | 0.218 µM | 0.003 µM |
| CN1CCC(C[C@@H]2COc3cc(S(=O)(=O)NC(=O)c4ccc(N5CCN(CC6=C(c7ccc(Cl)cc7)CC(C)(C)CC6)CC5)cc4Oc4cnc5[nH]ccc5c4)cc([N+](=O)[O-])c3N2)CC1 [Example 2-201, (R)-2-((1H-pyrrolo[2,3-b]pyridin-5-yl)oxy)-4-(4-((4′-chloro-5,5-dimethyl-3,4,5,6-tetra-hydro-[1,1′-biphenyl]-2-yl)methyl)piperazin-1-yl)-N-((3-((1-methylpiperidin-4-yl)meth-yl)-5-nitro-3,4-dihydro-2H-benzo[b][1,4]ox-azin-7-yl)sulfonyl)benzamide] | 0.145 µM | 0.022 µM |
| COC(=O)N1CCC(C[C@@H]2COc3cc(S(=O)(=O)NC(=O)c4ccc(N5CCN(CC6=C(c7ccc(Cl)cc7)CC(C)(C)CC6)CC5)cc4Oc4cnc5[nH]ccc5c4)cc([N+](=O)[O-])c3N2)CC1 [Example 2-202, methyl (R)-4-((7-(N-(2-((1H-pyrrolo[2,3-b]pyridin-5-yl)oxy)-4-(4-((4′-chloro-5,5-dimethyl-3,4,5,6-tetrahydro-[1,1′-biphenyl]-2-yl)methyl)piperazin-1-yl)benzoyl)sulfamoyl)-5-nitro-3,4-dihydro-2H-benzo[b][1,4]oxazin-3-yl)methyl)piperidine-1-carboxylate] | 0.063 µM | 0.036 µM |
| CC(=O)N1CCC(C[C@@H]2COc3cc(S(=O)(=O)NC(=O)c4ccc(N5CCN(CC6=C(c7ccc(Cl)cc7)CC(C)(C)CC6)CC5)cc4Oc4cnc5[nH]ccc5c4)cc([N+](=O)[O-])c3N2)CC1 [Example 2-203, (R)-2-((1H-pyrrolo[2,3-b]pyridin-5-yl)oxy)-N-((3-((1-acetylpiperidin-4-yl)methyl)-5-nitro-3,4-dihydro-2H-benzo[b][1,4]oxazin-7-yl)sulfonyl)-4-(4-((4′-chloro-5,5-dimethyl-3,4,5,6-tetrahydro-[1,1′-biphenyl]-2-yl)meth-yl)piperazin-1-yl)benzamide] | 0.096 µM | 0.02 µM |
| CC1(C)CCC(CN2CCN(c3ccc(C(=O)NS(=O)(=O)c4cc5c(c([N+](=O)[O-])c4)N[C@H](CC4CCN(S(C)(=O)=O)CC4)CO5)c(Oc4cnc5[nH]ccc5c4)c3)CC2)=C(c2ccc(Cl)cc2)C1 [Example 2-204, (R)-2-((1H-pyrrolo[2,3-b]pyridin-5-yl)oxy)-4-(4-((4′-chloro-5,5-dimethyl-3,4,5,6-tetra-hydro-[1,1′-biphenyl]-2-yl)methyl)piperazin-1-yl)-N-((3-((1-(methylsulfonyl)piperidin-4-yl)methyl)-5-nitro-3,4-dihydro-2H-benzo [b][1,4]oxazin-7-yl)sulfonyl)benzamide] | 0.017 µM | 0.026 µM |
